What was measured:
[1] = Acute toxicity in female ICR mouse assessed as effect on pathological damage in kidney at 2000 mg/kg, IG measured after 14 days by H and E staining based analysis; type: organism-based; settings: in vivo, po, 336 h, time 14 day
[2] = Acute toxicity in female ICR mouse assessed as effect on pathological damage in lung at 2000 mg/kg, IG measured after 14 days by H and E staining based analysis; type: organism-based; settings: in vivo, po, 336 h, time 14 day
[3] = Acute toxicity in male ICR mouse assessed as effect on pathological damage in lung at 2000 mg/kg, IG measured after 14 days by H and E staining based analysis; type: organism-based; settings: in vivo, po, 336 h, time 14 day
[4] = molecular target: Voltage-gated inwardly rectifying potassium channel KCNH2 (Homo sapiens, UniProt Q12809); test: Inhibition of human ERG expressed in CHO cells at holding potential of -80 mV by automated patch clamp electrophysiological method; type: toxicity, cell-based
Sequence of Voltage-gated inwardly rectifying potassium channel KCNH2 (Q12809 whole entry): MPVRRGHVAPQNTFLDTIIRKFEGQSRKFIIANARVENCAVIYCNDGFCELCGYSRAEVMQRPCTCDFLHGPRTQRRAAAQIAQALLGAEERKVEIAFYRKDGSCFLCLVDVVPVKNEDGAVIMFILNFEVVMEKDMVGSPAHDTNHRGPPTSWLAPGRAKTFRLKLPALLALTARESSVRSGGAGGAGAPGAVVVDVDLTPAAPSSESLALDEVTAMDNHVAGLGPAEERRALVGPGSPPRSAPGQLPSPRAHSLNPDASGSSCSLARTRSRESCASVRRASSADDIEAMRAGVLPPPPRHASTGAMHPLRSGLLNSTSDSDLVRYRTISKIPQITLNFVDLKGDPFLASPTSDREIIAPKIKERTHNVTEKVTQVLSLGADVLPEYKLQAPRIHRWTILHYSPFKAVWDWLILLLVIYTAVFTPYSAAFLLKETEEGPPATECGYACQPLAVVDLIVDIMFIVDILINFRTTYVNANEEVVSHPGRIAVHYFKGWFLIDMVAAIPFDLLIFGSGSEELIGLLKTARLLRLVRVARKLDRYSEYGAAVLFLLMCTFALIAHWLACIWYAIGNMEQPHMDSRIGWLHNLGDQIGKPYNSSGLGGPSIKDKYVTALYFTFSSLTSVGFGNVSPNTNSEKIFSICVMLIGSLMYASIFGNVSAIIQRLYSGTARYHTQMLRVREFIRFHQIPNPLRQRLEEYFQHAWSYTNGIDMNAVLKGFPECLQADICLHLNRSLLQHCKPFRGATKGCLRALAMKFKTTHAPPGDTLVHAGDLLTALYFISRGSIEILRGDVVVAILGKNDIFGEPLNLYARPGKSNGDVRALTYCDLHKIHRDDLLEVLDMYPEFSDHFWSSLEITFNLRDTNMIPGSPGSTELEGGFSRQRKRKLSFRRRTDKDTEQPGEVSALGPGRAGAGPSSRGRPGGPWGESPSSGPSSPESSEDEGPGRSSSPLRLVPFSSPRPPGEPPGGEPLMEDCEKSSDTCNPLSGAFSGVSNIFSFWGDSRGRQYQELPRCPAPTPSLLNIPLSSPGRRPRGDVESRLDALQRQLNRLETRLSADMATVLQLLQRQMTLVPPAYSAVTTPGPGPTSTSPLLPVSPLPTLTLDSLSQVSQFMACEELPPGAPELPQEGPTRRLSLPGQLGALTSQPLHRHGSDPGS

[5] = molecular target: hERG (Homo sapiens, UniProt Q12809); test: Inhibition of human ERG expressed in CHO cells at holding potential of -80 mV at >40 uM by automated patch clamp electrophysiological method relative to control; type: toxicity, cell-based; settings: CHO cells that express hERG
Sequence of hERG (Q12809 whole entry): as above

[6] = Selectivity index, ratio of CC50 for human MT4 cells to EC50 for wild type HIV-1 IIIB infected in human MT4 cellS; settings: MT4 cells
[7] = Metabolic stability in human liver microsomes assessed as half-life at 0.1 uM preincubated for 10 mins followed by NADPH addition and measured upto 60 mins by LC-MS/MS analysis; type: ADME, Microsome; settings: time < 70 min
[8] = Metabolic stability in rat liver microsomes assessed as half-life at 0.1 uM preincubated for 10 mins followed by NADPH addition and measured upto 60 mins by LC-MS/MS analysis; type: ADME, Microsome; settings: time < 70 min
[9] = system: Human immunodeficiency virus 1; test: Antiviral activity against HIV-1 harboring RT E138K mutant infected in human MT4 cells assessed as protection against virus-induced cytopathic effect incubated for 5 days by MTT assay; type: functional, organism-based; settings: Human immunodeficiency virus 1, MT4, 120 h
[10] = molecular target: Cytochrome P450 2C9 (Homo sapiens, UniProt P11712); test: Inhibition of CYP2C9 in human liver microsomes preincubated for 10 mins followed by NADPH addition and measured after 15 mins by LC/MS/MS analysis
Sequence of Cytochrome P450 2C9 (P11712 whole entry): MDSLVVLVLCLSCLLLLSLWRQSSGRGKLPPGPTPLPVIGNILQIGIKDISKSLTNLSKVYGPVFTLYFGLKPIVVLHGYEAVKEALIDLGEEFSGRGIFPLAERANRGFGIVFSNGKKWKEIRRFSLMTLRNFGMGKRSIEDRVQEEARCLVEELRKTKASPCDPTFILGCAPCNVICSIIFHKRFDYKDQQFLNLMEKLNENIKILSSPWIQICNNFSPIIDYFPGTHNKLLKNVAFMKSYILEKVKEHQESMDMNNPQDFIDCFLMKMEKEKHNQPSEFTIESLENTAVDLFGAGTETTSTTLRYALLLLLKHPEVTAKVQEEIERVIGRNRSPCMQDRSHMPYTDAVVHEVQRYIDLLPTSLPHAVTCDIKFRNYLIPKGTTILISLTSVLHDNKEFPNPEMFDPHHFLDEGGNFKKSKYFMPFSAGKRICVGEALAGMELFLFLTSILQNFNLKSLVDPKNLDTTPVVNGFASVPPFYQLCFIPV

[11] = Solubility of compound in phosphate buffer at pH 7.0 measured after 24 hrs by HPLC analysis; type: physicochemical
[12] = Acute toxicity in female ICR mouse assessed as effect on pathological damage in brain at 2000 mg/kg, IG measured after 14 days by H and E staining based analysis; type: organism-based; settings: in vivo, po, 336 h, time 14 day
[13] = Acute toxicity in male ICR mouse assessed as effect on body weight at 2000 mg/kg, IG measured after 14 days; type: organism-based; settings: in vivo, po, 336 h, time 14 day

For `Cc1cc(-c2ccncc2)cc(C)c1Nc1nc(Nc2ccc(C#N)cc2)ncc1-c1cn[nH]c1`, the Activity [1] was “Non-toxic”, the Activity [2] was “Non-toxic” and the Activity [3] was “Non-toxic”. For the same molecule, the IC50 [4] was greater than 40 µM, the inhibition at 40 µM [5] was 31.4% and the selectivity ratio [6] was greater than 52600. For the same molecule, the half-life at 0.1 µM [7] was 29.9 min, the half-life at 0.1 µM [8] was 20.4 min and the EC50 [9] was 0.011 µM. For the same molecule, the IC50 [10] was greater than 50 µM, the solubility at 24 h [11] was less than 1 µg/mL and the Activity [12] was “Non-toxic”. For the same molecule, the Activity [13] was “Non-toxic”.
